{"source": "patent US3980646A", "about": "“3-Methylpyrazole-5-carboxylates and medicaments containing these compounds” (Wulfing; Johann A., priority 1974, dated 1976)", "key": {"free fatty acids (FFS) [1]": {"system": "free fatty acids (FFS)", "experiment": "influence on the free fatty acids (FFS) in starved (hyperlipacidaemic) animals, hunger lipolysis", "format": "in vivo, rats (Wistar)", "procedure": "(§1) Investigations on a total of 260 Wistarrats were conducted with 7-[3-(N-methyl-N-2-hydroxyethyl)-amino-2-hydroxypropyl]-1,3-dimethylxanthine-3-methylpyrazole-5-carboxylate.\n(§2) Examination of the influence of 7-[3-(N-methyl-N-2-hydroxy-\n(§3) ethyl)-amino-2-hydroxypropyl]-1,3-dimethylxanthine-3-methyl-\n(§4) pyrazole-5-carboxylate on the serum fatty acids (FFS) of\nMale Rats, starve for 17 hours\n(§5) Dose: 100 mg/kg body weight, oral by esophagus probe,\n(§6) Blood removal: 1 hour after application\npyrazole-5-carboxylate on the free fatty acids (FFS) in\nstarved animals 1 hour after application\nComparative examinations of the influence of 7-[3-(N-methyl-\ncarboxylic acid on the free fatty acids (FFS) in starved\nanimals 1 hour after application\npyrazole-5-carboxylic acid on the free fatty acids (FFS)\nin starved animals 6 hours after application"}, "serum fatty acids (FFS) [2]": {"system": "serum fatty acids (FFS)", "experiment": "influence on the serum fatty acids (FFS) of normal animals", "format": "in vivo, Female rats (Wistar)", "details": "normal female rats, 100 mg/kg oral, 1 hour after application", "procedure": "as §1, §2, §3, §4\nFemale rats, starve for 5 hours\nas §5, §6"}, "cholesterol": {"system": "cholesterol", "experiment": "assaying for cholesterol in starved rats", "format": "in vivo, Male Rats (Wistar)", "procedure": "Assaying for cholesterol\nMale Rats, starve for 18 hours, ether narcosis, heart puncture\n100 mg/kg of 7-[3-(N-methyl-N-"}, "free fatty acids (FFS) [3]": {"system": "free fatty acids (FFS)", "experiment": "influence on the free fatty acids (FFS) after repeated application once daily for 4 days", "format": "in vivo, Rats male (Wistar)", "details": "for free fatty acids (FFS): individual animals; for free fatty acids (FFS) / free fatty acids (FFS), mean (x10): 4 × appl. 50 mg/kg p.o.; for free fatty acids (FFS), mean (x10): control 1.27, p<0.001", "procedure": "Rats male, repeated application once daily for 4 days,\non the 4th day groups of 10 animals were killed at\nintervals of 30 minutes, 1 hour and 2 hours after the\nlast application by ether narcosis and heart puncture.\n10 controls were given esophagus probe, animals starved\nfor 17 hours before killing (cf. FIG. 4)\n7-[3-(N-methyl-2-hydroxyethyl)-amino-2-\nhydroxypropyl]-1,3-dimethylxanthine-3-\nmethylpyrazole-5-carboxylate 50 mg/kg peroral\n3-methylpyrazole-5-carboxylic acid (3-MPC)\neq./kg 15 mg/kg peroral"}, "Triglycerides": {"system": "Triglycerides", "experiment": "triglycerides in hyperlipacidaemic rats treated with octylphenol polyethylene glycolether", "format": "in vivo, Male rats (Wistar)", "procedure": "Male rats, starve for 22 hours, ether narcosis, heart puncture\nDose: 1000 mg/kg of octylphenyl polyethylene glycolether i.v.\n6 hours before blood removal\nDose: 100 mg/kg of 7-[3-(N-methyl-N-2-hydroxyethyl)-amino-2-\nhydroxypropyl]-1,3-dimethylxanthine-3-methylpyrazole-5-\ncarboxylate by esophagus probe, 6 hours, 4 hours and\n2 hours before blood removal"}, "[4]": {"experiment": "general pharmacological effects (lipolysis inhibition, lipid lowering, tachyphylaxis, toxicity)", "format": "in vivo"}, "serum fatty acids (FFS) [5]": {"system": "serum fatty acids (FFS)", "experiment": "influence on the serum fatty acids (FFS) of hyperlipacidaemic rats, alcohol lipolysis", "format": "in vivo, rats (Wistar)", "details": "alcohol 2 g/kg i.v., 100 mg/kg oral 3 hours before blood removal", "procedure": "as §1\nrats, starve for 5 hours,\nDose: alcohol 2g/kg body weight in 20% solution i.v.,\nDose: active principle according to the invention\n100 mg/kg body weight, oral by esophagus probe\n3 hours before blood removal"}}, "note": "Where “and” joins values, the source holds several entries; their conditions need not be identical. Identical values can stand only once."}
{"compound": "CN(CCO)CC(O)Cn1cnc2c1c(=O)n(C)c(=O)n2C.Cc1cc(C(=O)O)[nH]n1", "note": "(stereo not drawn) [7-[3-(N-methyl-N-2-hydroxyethyl)-amino-2-hydroxypropyl]-1,3-dimethylxanthine-3-methylpyrazole-5-carboxylate]", "values": [{"measurement": "FFS", "setting": "free fatty acids (FFS) [1]; Table 4 dose-effect, starved animals, 1 hour, 10 mg/kg, n 10, control 0.97", "result": 0.53, "unit": "μval/ml"}, {"measurement": "FFS", "setting": "free fatty acids (FFS) [1]; Table 4 dose-effect, starved animals, 1 hour, 20 mg/kg, n 5, control 0.90", "result": 0.56, "unit": "μval/ml"}, {"measurement": "FFS", "setting": "free fatty acids (FFS) [1]; Table 4 dose-effect, starved animals, 1 hour, 30 mg/kg, n 4, control 1.02", "result": 0.54, "unit": "μval/ml"}, {"measurement": "FFS", "setting": "free fatty acids (FFS) [1]; Table 4 dose-effect, starved animals, 1 hour, 40 mg/kg, n 5, control 1.02", "result": 0.48, "unit": "μval/ml"}, {"measurement": "FFS", "setting": "free fatty acids (FFS) [1]; Table 4 dose-effect, starved animals, 1 hour, 50 mg/kg, n 10, control 1.08, **p<0.001", "result": 0.40, "unit": "μval/ml"}, {"measurement": "FFS", "setting": "free fatty acids (FFS) [1]; Table 4 dose-effect, starved animals, 1 hour, 100 mg/kg, n 15, control 0.91, *p<0.001", "result": 0.46, "unit": "μval/ml"}, {"measurement": "FFS", "setting": "free fatty acids (FFS) [1]; Table 5, individual animals, starved, 1 hour after application, 50 mg/kg", "result": "0.39 μval/ml and 0.44 μval/ml and 0.46 μval/ml and 0.40 μval/ml and 0.35 μval/ml and 0.45 μval/ml and 0.37 μval/ml and 0.32 μval/ml and 0.41 μval/ml"}, {"measurement": "FFS, mean", "setting": "free fatty acids (FFS) [1]; Table 5, mean, n=10, starved, 1 hour after application, 50 mg/kg, control 1.08, p<0.001", "result": 0.40, "unit": "μval/ml"}, {"measurement": "FFS", "setting": "free fatty acids (FFS) [1]; Table 6, individual animals, starved, 6 hours after application, 50 mg/kg BW p.o., 50 mg/kg", "result": "0.39 μval/ml and 0.35 μval/ml and 0.43 μval/ml and 0.58 μval/ml and 0.54 μval/ml and 0.63 μval/ml and 0.77 μval/ml and 0.52 μval/ml and 0.51 μval/ml and 0.96 μval/ml and 0.59 μval/ml and 0.78 μval/ml and 0.53 μval/ml and 0.44 μval/ml and 0.64 μval/ml and 0.85 μval/ml and 0.32 μval/ml"}, {"measurement": "FFS, mean (x)", "setting": "free fatty acids (FFS) [1]; Table 6, mean, n=21, starved, 6 hours after application, 50 mg/kg BW p.o., control 0.86, p<0.001", "result": 0.57, "unit": "μval/ml"}, {"measurement": "lipolysis-inhibiting effect compared with free 3-methylpyrazole-5-carboxylic acid", "setting": "free fatty acids (FFS) [1]; equimolar dosage, especially 6 hours after application", "result": "more pronounced than that of the free 3-methylpyrazole-5-carboxylic acid"}, {"measurement": "FFS", "setting": "serum fatty acids (FFS) [2]; individual animals, starve for 5 hours, 100 mg/kg", "result": "0.51 μval/ml and 0.58 μval/ml and 0.52 μval/ml and 0.56 μval/ml and 0.57 μval/ml and 0.48 μval/ml and 0.54 μval/ml"}, {"measurement": "FFS, mean (φ)", "setting": "serum fatty acids (FFS) [2]; mean of test series, control φ 0.60", "result": 0.53, "unit": "μval/ml"}, {"measurement": "cholesterol level of starved rats", "setting": "cholesterol; 100 mg/kg perorally, result in words", "result": "significantly reduces the cholesterol level"}, {"measurement": "Cholesterol", "setting": "cholesterol; individual animals, starve for 18 hours, 100 mg/kg per os 1 hour before killing, 100 mg/kg", "result": "78.45 mg % and 50.86 mg % and 57.76 mg % and 47.71 mg % and 62.07 mg % and 48.28 mg % and 65.52 mg % and 56.03 mg % and 38.79 mg %"}, {"measurement": "Cholesterol, mean (x10)", "setting": "cholesterol; mean of 10, starve for 18 hours, 100 mg/kg per os 1 hour before killing, control 75.69, p<0.001", "result": 57.07, "unit": "mg %"}, {"measurement": "free fatty acids (FFS)", "setting": "free fatty acids (FFS) [3]; 30' after last application", "result": "0.72 μval/ml plasma and 0.94 μval/ml plasma and 0.69 μval/ml plasma and 0.83 μval/ml plasma and 1.36 μval/ml plasma and 0.89 μval/ml plasma and 0.66 μval/ml plasma and 0.67 μval/ml plasma and 0.86 μval/ml plasma and 1.07 μval/ml plasma"}, {"measurement": "free fatty acids (FFS)", "setting": "free fatty acids (FFS) [3]; 1 h after last appl.", "result": "0.75 μval/ml plasma and 0.42 μval/ml plasma and 0.45 μval/ml plasma and 0.56 μval/ml plasma and 0.67 μval/ml plasma and 0.54 μval/ml plasma and 0.86 μval/ml plasma and 0.63 μval/ml plasma and 0.98 μval/ml plasma and 0.89 μval/ml plasma"}, {"measurement": "free fatty acids (FFS)", "setting": "free fatty acids (FFS) [3]; 2 h after last appl.", "result": "0.79 μval/ml plasma and 0.58 μval/ml plasma and 0.94 μval/ml plasma and 0.80 μval/ml plasma and 1.10 μval/ml plasma and 1.07 μval/ml plasma and 0.84 μval/ml plasma and 0.90 μval/ml plasma and 0.97 μval/ml plasma and 0.83 μval/ml plasma"}, {"measurement": "free fatty acids (FFS), mean (x10)", "setting": "free fatty acids (FFS) [3]; 30' after last application", "result": 0.87, "unit": "μval/ml plasma"}, {"measurement": "free fatty acids (FFS), mean (x10)", "setting": "free fatty acids (FFS) [3]; 1 h after last appl.", "result": 0.68, "unit": "μval/ml plasma"}, {"measurement": "free fatty acids (FFS), mean (x10)", "setting": "free fatty acids (FFS) [3]; 2 h after last appl.", "result": 0.88, "unit": "μval/ml plasma"}, {"measurement": "weakening of effect on free fatty acid content by pretreatment", "setting": "free fatty acids (FFS) [3]; repeated application, result in words", "result": "does not have this effect"}, {"measurement": "triglyceride level", "setting": "Triglycerides; hyperlipacidaemic rats, result in words", "result": "significant reduction in the triglyceride level"}, {"measurement": "TG", "setting": "Triglycerides; individual animals, octylphenol polyethylene glycolether 1000 mg/kg i.v. 6 hours before, 100 mg/kg per os 6, 4 and 2 hours before killing", "result": "644.4 mg % and 687.4 mg % and 701.6 mg % and 707.4 mg % and 610.0 mg % and 703.1 mg % and 695.9 mg % and 711.7 mg %"}, {"measurement": "TG, mean (x)", "setting": "Triglycerides; mean, octylphenol polyethylene glycolether 1000 mg/kg i.v., 100 mg/kg per os 6, 4 and 2 hours before killing, control x = 777.2, p<0.001", "result": 687.0, "unit": "mg %"}, {"measurement": "influence on free fatty acids (FFS)", "setting": "[4]; doses down to 2 mg/kg, normal and hyperlipacidaemic rats (starved animals, alcohol animals)", "result": "significantly influences the free fatty acids (FFS)"}, {"measurement": "effect (lipolysis inhibition, reducing triglyceride and cholesterol level, low toxicity)", "setting": "[4]; result in words", "result": "particularly marked effect"}, {"measurement": "FFS", "setting": "serum fatty acids (FFS) [5]; individual animals, 100 mg/kg", "result": "0.45 μval/ml and 0.58 μval/ml and 0.59 μval/ml and 0.60 μval/ml and 0.52 μval/ml and 0.56 μval/ml and 0.43 μval/ml and 0.66 μval/ml and 0.67 μval/ml and 0.53 μval/ml"}, {"measurement": "FFS, mean (φ)", "setting": "serum fatty acids (FFS) [5]; mean, control φ 0.64, alcohol series φ 0.79, p<0.001", "result": 0.56, "unit": "μval/ml"}]}
